The target of data set [1] is human serum albumin (HSA) (Homo sapiens, UniProt P02768). The data set is described as follows: Albumin binding by biomimetic HPLC on Chiralpak HSA column. As to the method: (§1) The protein binding measurements were carried out on Chiralpak HSA and Chiralpak AGP columns with the dimensions of 3 x 50 mm with 5 um particle size stationary phase (Chiril Technologies Europe, France). The mobile phase was 50 mM ammonium acetate adjusted to pH 7.4 with a flow rate of 1.2 mL/min. […] The cycle time was 6 min with an additional 1 min re-equilibration time.
(§2) The cycle time was 8 min plus an additional 1 min re-equilibration time.

Data set [2] deals with α-1-acid-glycoprotein (AGP). As to the kind of experiment: Glycoprotein binding by biomimetic HPLC on Chiralpak AGP column. As to the method:
as §1, §2

For data set [3], the system named is HSA.
The conditions of data set [4]: calibration compounds, literature value, no reference given; cited from earlier work.
Data set [5] concerns HSA. As to conditions: calibration drugs, equilibrium dialysis literature % binding; cited from earlier work. For orientation: In equilibrium dialysis free small molecules cross a membrane that holds back macromolecules.
The subject of data set [6] is AGP. As to conditions: cited from earlier work; for % AGP: calibration drugs, equilibrium dialysis literature % binding.
For data set [7], the system named is AGP. The data set is described as follows: Literature AGP binding by equilibrium dialysis.
Details of data set [8]: method as in PMID 11472245. As to conditions: calibration set of compounds, predefined values; cited from earlier work.
Data set [9] is described as follows: Phospholipid binding at pH 7.4 on Immobilized Artificial Membrane (IAM) HPLC column. The class given is physicochemical. As to conditions: pH 7.4, standard 6 min protocol.
Method: The phospholipid-binding was measured using an IAM PC.DD2 column with dimensions of 100 x 4.6 mm (Regis Technologies Inc., Morton Grove, IL, USA). The gradient retention times of the compounds were measured using a 50 mM ammonium acetate starting mobile phase with the pH adjusted to 7.4. The mobile phase flow rate was 1.5 mL/min. […] The cycle time was 6 min plus an additional 1 min equilibration time was applied while the injector prepared for the next injection. The gradient retention times were calibrated with the acetophenone homologues for which the CHI IAM values have been established using isocratic measurements [26]. The Chromatographic Hydrophobicity Index on the IAM column [CHI(IAM)] approximates to the acetonitrile concentration in the mobile phase when the compound elutes. CHI(IAM) values above 45 indicate strong phospholipid binding. Repeating the retention time measurements provided the error only in the third digit of the minute (±0.005).
Data set [10] is described as follows: Human plasma protein binding by rapid equilibrium dialysis (RED). The class given is in vitro ADME. As to conditions: 100 % pooled human plasma, pH 7.4, 37 °C. As to the method: The test compounds were prepared in 100 % pooled human plasma. The measurement was performed using equilibrium dialysis with the two compartments separated by a semi-permeable membrane. The plasma solution was added to one side of the membrane while buffer (pH 7.4) was added to the other side. The system was allowed to reach equilibrium at 37 °C. Compound concentration on both sides of the membrane was measured by LC-MS/MS, and the fraction of unbound compound calculated. Calibration standards were prepared in plasma and buffer. Test compound incubations were performed in triplicate. A control compound was included in each experiment. The solutions for each batch of compounds were combined into two groups (protein-free and protein-containing). Cassette analysed by LC-MS/MS using two sets of calibration standards for protein-free solutions (7 points) and protein-containing solutions (7 points). The experiments were carried out at Cyprotex Discovery Ltd (UK) and repeated at Sygnature Discovery Ltd (UK) laboratories using their generic LC/MS method. The unbound fraction (fu) is calculated from the concentration of the test compound in the protein-containing side Cp and the protein-free side Cf based on the formula: […]

Data set [11] is described as follows: Estimated total plasma protein binding from biomimetic HPLC data (model equation). As to conditions: from % HSA, % AGP and lipophilicity, standard 6 min protocol. From the text:
(§3) Thus, the regression coefficients in linear regression analysis are meaningful and reflect to the physiological proportion of the albumin and phospholipids in the body. […] They are based on the calibrated retention times obtained on C-18, IAM, Chiralpak HSA and Chiralpak AGP columns.

Data set [12] in a line: Estimated brain tissue binding and brain to blood ratio from biomimetic HPLC data (model equations). As to conditions: standard 6 min protocol data.
Text: as §3

Data set [13] in a line: Estimated lung tissue binding from biomimetic HPLC data (model equation). As to conditions: standard 6 min protocol data.
Text: as §3

Data set [14] in a line: Estimated volume of distribution, unbound volume of distribution and drug efficiency from biomimetic HPLC data. As to conditions: standard 6 min protocol data.
Text: as §3

For data set [15] the following is noted: cited from earlier work.
The conditions of data set [16]: cited from earlier work. This is another data set of the same source.
The conditions of data set [17]: both in animals and in human; cited from earlier work.
Setting [18] is: standard 6 min IPA gradient up to 35 %, pH 7.4, racemate.

The source of these data is PMC8920107 (ADMET & DMPK, 2020).

Several values for one entry are separate records, joined by “and”; a condition that tells them apart may be missing. Equal entries are not always repeated.

human serum albumin (HSA), sequence (P02768 25-609): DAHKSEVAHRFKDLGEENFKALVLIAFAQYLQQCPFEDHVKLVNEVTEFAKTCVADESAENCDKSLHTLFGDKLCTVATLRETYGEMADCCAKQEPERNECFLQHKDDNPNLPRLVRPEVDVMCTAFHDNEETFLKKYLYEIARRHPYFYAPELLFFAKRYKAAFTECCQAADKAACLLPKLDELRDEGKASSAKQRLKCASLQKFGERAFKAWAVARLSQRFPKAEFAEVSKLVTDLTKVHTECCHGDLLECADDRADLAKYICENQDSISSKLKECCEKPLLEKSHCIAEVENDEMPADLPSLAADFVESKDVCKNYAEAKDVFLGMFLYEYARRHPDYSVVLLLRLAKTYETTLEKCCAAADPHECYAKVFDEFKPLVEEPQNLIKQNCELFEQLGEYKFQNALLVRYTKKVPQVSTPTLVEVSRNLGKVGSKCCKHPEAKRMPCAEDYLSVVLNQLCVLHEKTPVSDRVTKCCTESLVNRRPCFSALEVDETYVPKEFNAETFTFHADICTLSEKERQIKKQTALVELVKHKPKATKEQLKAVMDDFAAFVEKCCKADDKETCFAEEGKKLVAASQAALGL

Regarding `CC(C)NCC(O)COc1cccc2ccccc12` (stereo not shown) [Propranolol], the “calculated % binding, HSA 5 % IPA” value in [1] (isocratic 5 % IPA, 1.2 mL/min, partial calibration set) was 0.76 (54 %). Further, the “calculated % binding, HSA 8 % IPA” value in [1] (isocratic 8 % IPA, 1.2 mL/min) is reported as 0.73 (57.6 %). For the same compound, the “calculated % binding, HSA 15 % IPA” value in [1] (isocratic 15 % IPA, 1.2 mL/min) is 0.58 (66 %). In addition, in [2] (isocratic 5 % IPA, 1.2 mL/min), the “calculated % binding, AGP 5 % IPA” value is 2.78 (85 %). The “calculated % binding, AGP 8 % IPA” value in [2] (isocratic 8 % IPA, 1.2 mL/min) is recorded as 1.73 (68 %). Further, the “calculated % binding, AGP 15 % IPA” value in [2] (isocratic 15 % IPA, 1.2 mL/min) was 1.58 (67 %). The “log k (HSA)” value in data set [3] is listed as 0.3. In addition, in [4], the “% PPB (binds to plasma proteins)” value is reported as “propranolol (66 % PPB)”. Further, the “% HSA” value in [5] is listed as 66.6%. Further, in [6], the “% AGP” value is listed as 86%. The “log k (AGP)” value in [7] was 0.8.
As to `NC(=O)N1c2ccccc2C=Cc2ccccc21` [Carbamazepine], the “log k (HSA)” value in data set [3] worked out at 0.5. Moreover, in data set [5], the “% HSA” value is 75.0%. The “% AGP” value in data set [6] is recorded as 65%. In [7], the “log k (AGP)” value was determined as 0.3.
As to `CC(=O)c1ccccc1` [Acetophenone], in data set [8], the “CHI at pH 2.6” value was 64.1, the “CHI at pH 7.4” value was 65.1 and the “CHI at pH 10.5” value is given as 64.1.
For the compound `O=C(O)Cc1ccccc1Nc1c(Cl)cccc1Cl` [Diclofenac], the “log k (AGP)” value in data set [7] came out at 0.2.
For `Cn1c(=O)c2[nH]cnc2n(C)c1=O` [Theophylline], in [8], the “CHI at pH 2.6” value is listed as 17.9, the “CHI at pH 7.4” value is given as 18.4 and the “CHI at pH 10.5” value is given as 5.0.
For the compound `CCN(CC)CCCC(C)Nc1ccnc2cc(Cl)ccc12` (stereo not shown) [CQ, Chloroquine], the “log k (IAM)” value in data set [9] was found to be 2.6. Also, the fraction unbound is 0.178 in [1] (human, Chiralpak HSA HPLC column (immobilised human serum albumin), pH 7.4); 0.474 in data set [10]; 0.05 in data set [11] (human, read-out: Estimated % plasma protein binding (PPB) (converted)). Besides, in [1] (setting [18]), the “% HSA bound” value is 87% and 87.6%. For the same compound, the “log k (HSA)” value in data set [1] (standard 6 min IPA gradient, racemate) amounted to 0.8. The “% AGP bound” value in data set [2] (setting [18]) is on record as 88.8%; in data set [6], 48.4%. Moreover, in data set [11], the “Estimated % plasma protein binding (PPB)” value is given as 94.8%. Besides, in data set [12] (brain tissue binding), the “%BTB” value is given as 98.4%. Besides, the Kp at 0.1 h in data set [12] (read-out: Brain to plasma) was 3.4. Besides, the “% LTB” value in [13] is given as 96.3%. Also, in [14], the Vd was 6.9 L/kg. In addition, the Vdu in data set [14] is on record as 56.1 L/kg. Also, the “Measured log I (ChemSpider)” value in data set [15] is 2.68-4.63. Further, the “volume of distribution described in the literature” value in [16] is reported as “over 100 L/kg”. Also, the phospholipidosis result in [17] was “causes phospholipidosis”.
Take `CNC(=C[N+](=O)[O-])NCCSCc1csc(CN(C)C)n1` [Nizatidine]: the “log k (HSA)” value in [3] was -0.6. For the same compound, in data set [5], the “% HSA” value was 20.4%. Further, the “% AGP” value in [6] is on record as 37.1%. Besides, the “log k (AGP)” value in [7] is recorded as -0.2.
Turning to `c1ccc(-c2nn[nH]n2)cc1` [Phenyl tetrazole], in [8], the “CHI at pH 2.6” value is 42.2, the “CHI at pH 7.4” value is 23.6 and the “CHI at pH 10.5” value was 16.0.
Consider `Cn1c(=O)c2nc(-c3ccccc3)[nH]c2n(C)c1=O` [Phenyl theophylline], for which, in [8], the “CHI at pH 2.6” value is reported as 51.7, the “CHI at pH 7.4” value is 51.2 and the “CHI at pH 10.5” value is 51.3.
For the compound `c1ccc2[nH]ccc2c1` [Indole], in [8], the “CHI at pH 2.6” value is listed as 72.1, the “CHI at pH 7.4” value was 71.5 and the “CHI at pH 10.5” value is given as 72.1.
